The values below come from the supplement of paper PMC8967900.
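Also: ALL cell lines in 384-well plates, five doses spanning 10,000-fold, each plate scaled between vehicle and 100 µmol/L benzalkonium chloride controls, sDSS an adapted area-under-curve metric.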

In one test the test system is MN-60. The test can be described thus: selective drug sensitivity score (sDSS, relative to normal bone marrow) (sDSS (score)); higher = more potent and effective on the cell line relative to normal bone marrow cells. The settings on record: 72 h.
In the case of `C[C@@H]1CN(CC(=O)Nc2ccc3c(c2)Cc2cccc(-c4cc(=O)cc(N5CCOCC5)o4)c2S3)C[C@H](C)O1` (top concentration 25000 nM), the “selective drug sensitivity score” value was -2.18.

Regarding `COc1ccc2[nH]cc(/C=C3\C(=O)Nc4ccc(NC(=O)CCN5CCCCC5)cc43)c2c1` (top concentration 50000 nM), the “selective drug sensitivity score” value was determined as 0.28.

Regarding `Cc1nn(C)c(COc2ccc(N3CCN(S(=O)(=O)N(C)C)CC3)cc2)c1-c1cccc2c(CCCOc3cccc4ccccc34)c(C(=O)O)n(CCN3CCOCC3)c12` (top concentration 50000 nM), the “selective drug sensitivity score” value was 3.16.

On to `C[C@H](Nc1ncnc2[nH]cnc12)c1cc2ccc(F)cc2nc1-c1ccccn1` [AMG319] (top concentration 1000 nM), for which the “selective drug sensitivity score” value was -1.42.

On to `C=CCn1c(=O)c2cnc(Nc3ccc(N4CCN(C)CC4)cc3)nc2n1-c1cccc(C(C)(C)O)n1` [AZD1775] (top concentration 10000 nM), for which the “selective drug sensitivity score” value was found to be 2.74.

Regarding `NC(=O)Nc1cc(-c2cccc(F)c2)sc1C(=O)N[C@H]1CCCNC1` [AZD7762] (top concentration 1000 nM), the “selective drug sensitivity score” value was -4.9.

Take `Cc1cc([C@@H](C)Nc2ccccc2C(=O)O)c2nc(N3CCOCC3)cc(=O)n2c1` [AZD-6482] (top concentration 2500 nM): the “selective drug sensitivity score” value was found to be 0.02.

With `CN(C)Cc1c(C(=O)NCCOc2ccc(C(=O)NO)cc2)oc2ccccc12` [Abexinostat] (top concentration 10000 nM), the “selective drug sensitivity score” value is -3.04.

For `S=C(NCc1ccc2c(c1)OCO2)N1CCN(c2ncnc3c2oc2ccccc23)CC1` [Amuvatinib] (top concentration 10000 nM), the “selective drug sensitivity score” value came to 5.46.

For the molecule `CC(=O)OC[C@H]1O[C@@H]([S-])[C@H](OC(C)=O)[C@@H](OC(C)=O)[C@@H]1OC(C)=O.CCP(CC)CC.[Au+]` [Auranofin] (top concentration 2500 nM), the “selective drug sensitivity score” value is -2.76.

Another test has as its system MOLT-14. Described as above. As to conditions: 72 h.
For `Cc1c(-c2ccc(N3CCc4cccc(C(=O)Nc5nc6ccccc6s5)c4C3)nc2C(=O)O)cnn1CC12CC3CC(CC(C3)C1)C2` (top concentration 1000 nM), the “selective drug sensitivity score” value was determined as 6.34.

Consider `O=C(NOC[C@H](O)CO)c1ccc(F)c(F)c1Nc1ccc(I)cc1F` (top concentration 1000 nM), for which the “selective drug sensitivity score” value came out at 8.84.

As for `CO[C@@H](C)Cn1c(=O)n(C)c2cnc3ccc(-c4cncc(C(C)(C)O)c4)cc3c21` (top concentration 2500 nM), the “selective drug sensitivity score” value turned out to be 2.08.

Regarding `Cc1cccc(CC(=O)N2CCc3c2ccc(-c2cn(C)c4ncnc(N)c24)c3F)n1` (top concentration 2500 nM), the “selective drug sensitivity score” value stood at 1.22.

With `CNC(=O)c1ccccc1Nc1nc(Nc2ccc3c(c2OC)CCC[C@H](N2CCN(CCO)CC2)C3)ncc1Cl` (top concentration 5000 nM), the “selective drug sensitivity score” value was found to be 1.56.

Turning to `COc1cc2ncnc(Oc3cccc(NC(=O)Nc4cc(C(C)(C)C(F)(F)F)on4)c3)c2cc1OC` (top concentration 10000 nM), the “selective drug sensitivity score” value came out at 0.8.

On to `C[C@@H](Oc1cc(-n2cnc3ccc(CN4CCN(C)CC4)cc32)sc1C(N)=O)c1ccccc1C(F)(F)F` (top concentration 10000 nM), for which the “selective drug sensitivity score” value came to 24.8.

Take `Nc1nccc(-c2c(-c3ccc(F)cc3)ncn2C2CCCCC2)n1` (top concentration 10000 nM): the “selective drug sensitivity score” value stood at 0.

For the molecule `O=C(O)c1ccc(-c2c[nH]c3ncc(-c4ccccc4)cc23)cc1C1CCCC1` (top concentration 10000 nM), the “selective drug sensitivity score” value turned out to be 2.46.

Regarding `C[C@@H]1CN(CC(=O)Nc2ccc3c(c2)Cc2cccc(-c4cc(=O)cc(N5CCOCC5)o4)c2S3)C[C@H](C)O1` (top concentration 25000 nM), the “selective drug sensitivity score” value came to 0.32.

Consider `COc1ccc2[nH]cc(/C=C3\C(=O)Nc4ccc(NC(=O)CCN5CCCCC5)cc43)c2c1` (top concentration 50000 nM), for which the “selective drug sensitivity score” value amounted to 0.98.

As to `Cc1nn(C)c(COc2ccc(N3CCN(S(=O)(=O)N(C)C)CC3)cc2)c1-c1cccc2c(CCCOc3cccc4ccccc34)c(C(=O)O)n(CCN3CCOCC3)c12` (top concentration 50000 nM), the “selective drug sensitivity score” value is 6.96.

Regarding `C[C@H](Nc1ncnc2[nH]cnc12)c1cc2ccc(F)cc2nc1-c1ccccn1` [AMG319] (top concentration 1000 nM), the “selective drug sensitivity score” value was -1.42.

Take `C=CCn1c(=O)c2cnc(Nc3ccc(N4CCN(C)CC4)cc3)nc2n1-c1cccc(C(C)(C)O)n1` [AZD1775] (top concentration 10000 nM): the “selective drug sensitivity score” value is 14.3.

For `NC(=O)Nc1cc(-c2cccc(F)c2)sc1C(=O)N[C@H]1CCCNC1` [AZD7762] (top concentration 1000 nM), the “selective drug sensitivity score” value worked out at 0.6.

As for `Cc1cc([C@@H](C)Nc2ccccc2C(=O)O)c2nc(N3CCOCC3)cc(=O)n2c1` [AZD-6482] (top concentration 2500 nM), the “selective drug sensitivity score” value is -0.28.

As for `CN(C)Cc1c(C(=O)NCCOc2ccc(C(=O)NO)cc2)oc2ccccc12` [Abexinostat] (top concentration 10000 nM), the “selective drug sensitivity score” value came to 7.36.

Consider `S=C(NCc1ccc2c(c1)OCO2)N1CCN(c2ncnc3c2oc2ccccc23)CC1` [Amuvatinib] (top concentration 10000 nM), for which the “selective drug sensitivity score” value was 3.56.

Regarding `CC(=O)OC[C@H]1O[C@@H]([S-])[C@H](OC(C)=O)[C@@H](OC(C)=O)[C@@H]1OC(C)=O.CCP(CC)CC.[Au+]` [Auranofin] (top concentration 2500 nM), the “selective drug sensitivity score” value was 0.04.

For a further test, the system named is MOLT-16. The description is as above. The settings on record: 72 h.
Turning to `Cc1c(-c2ccc(N3CCc4cccc(C(=O)Nc5nc6ccccc6s5)c4C3)nc2C(=O)O)cnn1CC12CC3CC(CC(C3)C1)C2` (top concentration 1000 nM), the “selective drug sensitivity score” value was 0.54.

For `O=C(NOC[C@H](O)CO)c1ccc(F)c(F)c1Nc1ccc(I)cc1F` (top concentration 1000 nM), the “selective drug sensitivity score” value was -1.36.

As to `CO[C@@H](C)Cn1c(=O)n(C)c2cnc3ccc(-c4cncc(C(C)(C)O)c4)cc3c21` (top concentration 2500 nM), the “selective drug sensitivity score” value turned out to be 11.9.

With `Cc1cccc(CC(=O)N2CCc3c2ccc(-c2cn(C)c4ncnc(N)c24)c3F)n1` (top concentration 2500 nM), the “selective drug sensitivity score” value was 5.62.

On to `CNC(=O)c1ccccc1Nc1nc(Nc2ccc3c(c2OC)CCC[C@H](N2CCN(CCO)CC2)C3)ncc1Cl` (top concentration 5000 nM), for which the “selective drug sensitivity score” value turned out to be 2.06.

With `COc1cc2ncnc(Oc3cccc(NC(=O)Nc4cc(C(C)(C)C(F)(F)F)on4)c3)c2cc1OC` (top concentration 10000 nM), the “selective drug sensitivity score” value stood at 2.5.

As for `C[C@@H](Oc1cc(-n2cnc3ccc(CN4CCN(C)CC4)cc32)sc1C(N)=O)c1ccccc1C(F)(F)F` (top concentration 10000 nM), the “selective drug sensitivity score” value is 20.2.

Take `Nc1nccc(-c2c(-c3ccc(F)cc3)ncn2C2CCCCC2)n1` (top concentration 10000 nM): the “selective drug sensitivity score” value turned out to be 2.6.

Take `O=C(O)c1ccc(-c2c[nH]c3ncc(-c4ccccc4)cc23)cc1C1CCCC1` (top concentration 10000 nM): the “selective drug sensitivity score” value was 3.66.

Regarding `C[C@@H]1CN(CC(=O)Nc2ccc3c(c2)Cc2cccc(-c4cc(=O)cc(N5CCOCC5)o4)c2S3)C[C@H](C)O1` (top concentration 25000 nM), the “selective drug sensitivity score” value amounted to 0.32.

Turning to `COc1ccc2[nH]cc(/C=C3\C(=O)Nc4ccc(NC(=O)CCN5CCCCC5)cc43)c2c1` (top concentration 50000 nM), the “selective drug sensitivity score” value was -2.32.

Take `Cc1nn(C)c(COc2ccc(N3CCN(S(=O)(=O)N(C)C)CC3)cc2)c1-c1cccc2c(CCCOc3cccc4ccccc34)c(C(=O)O)n(CCN3CCOCC3)c12` (top concentration 50000 nM): the “selective drug sensitivity score” value amounted to 12.6.

As for `C[C@H](Nc1ncnc2[nH]cnc12)c1cc2ccc(F)cc2nc1-c1ccccn1` [AMG319] (top concentration 1000 nM), the “selective drug sensitivity score” value was -1.42.

With `C=CCn1c(=O)c2cnc(Nc3ccc(N4CCN(C)CC4)cc3)nc2n1-c1cccc(C(C)(C)O)n1` [AZD1775] (top concentration 10000 nM), the “selective drug sensitivity score” value was 17.5.

For the molecule `NC(=O)Nc1cc(-c2cccc(F)c2)sc1C(=O)N[C@H]1CCCNC1` [AZD7762] (top concentration 1000 nM), the “selective drug sensitivity score” value is -1.5.

On to `Cc1cc([C@@H](C)Nc2ccccc2C(=O)O)c2nc(N3CCOCC3)cc(=O)n2c1` [AZD-6482] (top concentration 2500 nM), for which the “selective drug sensitivity score” value is -0.28.

On to `CN(C)Cc1c(C(=O)NCCOc2ccc(C(=O)NO)cc2)oc2ccccc12` [Abexinostat] (top concentration 10000 nM), for which the “selective drug sensitivity score” value stood at 5.66.

On to `S=C(NCc1ccc2c(c1)OCO2)N1CCN(c2ncnc3c2oc2ccccc23)CC1` [Amuvatinib] (top concentration 10000 nM), for which the “selective drug sensitivity score” value worked out at 8.36.

Regarding `CC(=O)OC[C@H]1O[C@@H]([S-])[C@H](OC(C)=O)[C@@H](OC(C)=O)[C@@H]1OC(C)=O.CCP(CC)CC.[Au+]` [Auranofin] (top concentration 2500 nM), the “selective drug sensitivity score” value is 1.74.
